Here are results for two compounds from article PMC4867616, “Imaging of Cerebral Amyloid Angiopathy with Bivalent ^99mTc-Hydroxamamide Complexes” (Scientific Reports, 2016).

Structures are written as SMILES. Where “and” joins values, the source holds several entries; their conditions need not be identical. Equal values may be shown once. Read-outs that look alike come from different tables or passages of the source.

Data set [1] concerns the target T1, Aβ depositions in human CAA brain sections (Homo sapiens, UniProt P05067).
T1 construct: consistent with the immunohistochemical staining pattern observed in the same brain sections with anti-Aβ(1–40) antibody; from tissue; host or cells: post-mortem human brain, autopsy-confirmed CAA cases
Kind of data set: In vitro autoradiography of human CAA brain sections. The format is binding. The following applies: for Labeling of Aβ depositions in brain sections from another patient with CAA: patient with CAA (person). As to the method: (§1) Six micrometer thick serial human brain sections of paraffin-embedded blocks were used for autoradiography. To completely deparaffinize the sections, they were incubated in xylene for 30 min two times and in 100% EtOH for 1 min two times. Subsequently, they were subjected to 1-min incubation in 90% EtOH and 1-min incubation in 70% EtOH, followed by a 5-min wash in water. Each slide was incubated with a 50% EtOH solution of [^99mTc]SB2A or [^99mTc]BT2B (370 kBq/mL) at room temperature for 1 h. […] The sections were washed in 50% EtOH for 3 min two times and exposed to a BAS imaging plate (Fuji Film, Tokyo, Japan) for 2 h. Autoradiographic images were obtained using a BAS5000 scanner system (Fuji Film). After autoradiographic examination, the same sections were immunostained by an antibody against Aβ(1–40) to confirm the presence of Aβ depositions. For immunohistochemical staining of Aβ(1–40), the sections were autoclaved for 15 min in 0.01 M citric acid buffer (pH 6.0) to activate the antigen. After three 5-min incubations in PBS-Tween 20 (PBST), they were incubated with anti-Aβ(1–40) primary antibody (BA27; Wako, Osaka, Japan) at room temperature overnight. Subsequently, they were incubated in PBST for 5 min three times, and incubated with biotinylated goat anti-mouse IgG (Wako) at room temperature for 3 h. After three 5-min incubations in PBST, the sections were incubated with Streptavidin-Peroxidase complex at room temperature for 30 min. After three 5-min incubations in PBST, they were incubated with diaminobenzidine (Merck, Hesse, Germany) as a chromogen for 5 min. After washing with water, the sections were observed under a microscope (BIOREVO BZ-9000; Keyence Corp., Osaka, Japan).
as §1, with “In vitro autoradiography of human CAA brain sections. Postmortem brain tissues from autopsy-confirmed cases of CAA (person, and person) and a control (person) were obtained from the Graduate School of Medicine, Kyoto University, National Cerebral and Cardiovascular Center, and BioChain Institute Inc. (California, USA), respectively. Experiments were performed according to the regulations of the ethics committee of Kyoto University. Six” for “Six”, “serial” for “serial human brain”, “Aβ(1-40)” for “Aβ(1–40)”, “Aβ(1-40),” for “Aβ(1–40),”, “anti-Aβ(1-40)” for “anti-Aβ(1–40)”, “After three 5-min incubations in PBST, the sections were incubated with Streptavidin-Peroxidase complex at room temperature for 30 min. After three 5-min incubations in PBST, they were incubated with diaminobenzidine (Merck, Hesse, Germany) as a chromogen for 5 min. After washing with water, the sections were observed under a microscope (BIOREVO BZ-9000; Keyence Corp., Osaka, Japan).” left out

The target in the next data set is T2, CAA in Tg2576 mice (Homo sapiens, UniProt P05067).
T2 construct: Aβ(1–40) aggregates, the predominant amyloid found in CAA; tissue Taconic Farms, Inc. (New York, USA); host or cells: brain of living female Tg2576 transgenic mice
Kind of data set: SPECT/CT imaging in Tg2576 and wild-type mice. In kind it is in vivo. The following applies: 30 min postinjection. The method, then:
SPECT/CT imaging. Tg2576 transgenic mice (female, 27 or 30 months old) and wild-type mice (female, 27 or 30 months old) were used as the Alzheimer’s model and age-matched control, respectively. A saline solution (200 μL) of [^99mTc]SB2A (29.6-55.5 MBq) containing EtOH (40 μL) was injected directly into the tail vein. At 30 or 120 min postinjection, SPECT and CT images with the brain region as the ﬁeld of view were collected using the U-SPECT-II/CT system (MILabs, Utrecht, Netherlands) with 0.6-mm pinhole collimators (SPECT conditions, 30 min × 2 frames; CT conditions, accurate full angle mode in 65 kV/615 µA). The mouse was maintained under isoflurane anesthesia, while SPECT and then CT image data were collected. SPECT images were reconstructed by the OSEM method (16 subsets, 6 iterations) with a 0.4-mm Gaussian ﬁlter.

The conditions of data set [2]: normal mice, i.v., mean (SD), 5 animals, cited from earlier work.

T1 sequence (P05067 672-711 limits assumed): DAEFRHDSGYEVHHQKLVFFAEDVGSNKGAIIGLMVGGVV
T2 sequence (P05067 672-711 limits assumed): as above

As for `CN(C)c1ccc(/C=C/c2ccc(C3=N[O][99Tc-]4(=[O])([NH]3)[NH2+]C(c3ccc(/C=C/c5ccc(N(C)C)cc5)cc3)=N[O]4)cc2)cc1` (single isomer, unassigned) [[^99mTc]SB2A], in data set [1] (adjacent CAA brain section, PIB 1.0 mM), the “Blocking of labeling of Aβ depositions with excess nonradioactive PIB” value was “blocked to a large extent”. Besides, the “Accumulation of radioactivity in control brain sections (autoradiography)” value in data set [1] (brain section from a healthy control (person)) is “almost no accumulation of radioactivity”. The “Labeling of Aβ depositions in CAA brain sections (autoradiography)” value in data set [1] (brain section from a patient with CAA (person), 370 kBq/mL, 1 h) is recorded as “intensively labeled Aβ depositions”. Also, the “Labeling of Aβ depositions in brain sections from another patient with CAA” value in data set [1] is listed as “intensively labeled Aβ depositions”. Besides, the “Distribution in brains of Tg2576 versus wild-type mice (in vivo SPECT/CT)” value on CAA in Tg2576 mice is reported as “not differentially distributed”. In addition, the “Biodistribution of radioactivity, Blood” value in data set [2] (2 min after injection) is 14.28 (1.90) % injected dose per gram; in data set [2] (10 min after injection) it was 7.50 (0.51) % injected dose per gram; in data set [2] (30 min after injection), 5.13 % injected dose per gram and 5.13 (0.57) % injected dose per gram; in data set [2] (60 min after injection), 4.17 (0.24) % injected dose per gram. Besides, the “Biodistribution of radioactivity, Brain” value in data set [2] (2 min after injection) is 0.28 % injected dose per gram and 0.28 (0.03) % injected dose per gram; in data set [2] (10 min after injection), 0.17 (0.02) % injected dose per gram; in data set [2] (30 min after injection), 0.12 (0.01) % injected dose per gram; in data set [2] (60 min after injection), 0.11 (0.01) % injected dose per gram.
On to `CN(C)c1ccc(-c2nc3ccc(C4=N[O][99Tc-]5(=[O])([NH]4)[NH2+]C(c4ccc6nc(-c7ccc(N(C)C)cc7)sc6c4)=N[O]5)cc3s2)cc1` [[^99mTc]BT2B], for which the “Labeling of Aβ depositions in brain sections from another patient with CAA” value in data set [1] is listed as “intensively labeled Aβ depositions”.
